Measurements published in ChEMBL document CHEMBL1143961, “Synthesis and antiplatelet activity of ethyl 4-(1-benzyl-1H-indazol-3-yl)benzoate (YD-3) derivatives” (Bioorg Med Chem, 2008).

How the values were obtained:
[1] = system: Platelet; assay: Inhibition of U46619-induced human platelet aggregation; format: functional, cell-based
[2] = system: Platelet; assay: Inhibition of thrombin-induced human platelet aggregation; format: functional, cell-based
[3] = system: Platelet; assay: Inhibition of collagen-induced human platelet aggregation; format: functional, cell-based
[4] = system: Platelet; assay: Inhibition of SFLLRN-induced human platelet aggregation; format: functional, cell-based
[5] = system: Platelet; assay: Inhibition of GYPGKF-induced human platelet aggregation; format: functional, cell-based
[6] = target: T1, Proteinase-activated receptor 4 (Homo sapiens) (UniProt Q96RI0); assay: Inhibition of PAR4-mediated GYPGKF-induced P-selectin expression in human platelet at 5 uM
T1 sequence (whole entry): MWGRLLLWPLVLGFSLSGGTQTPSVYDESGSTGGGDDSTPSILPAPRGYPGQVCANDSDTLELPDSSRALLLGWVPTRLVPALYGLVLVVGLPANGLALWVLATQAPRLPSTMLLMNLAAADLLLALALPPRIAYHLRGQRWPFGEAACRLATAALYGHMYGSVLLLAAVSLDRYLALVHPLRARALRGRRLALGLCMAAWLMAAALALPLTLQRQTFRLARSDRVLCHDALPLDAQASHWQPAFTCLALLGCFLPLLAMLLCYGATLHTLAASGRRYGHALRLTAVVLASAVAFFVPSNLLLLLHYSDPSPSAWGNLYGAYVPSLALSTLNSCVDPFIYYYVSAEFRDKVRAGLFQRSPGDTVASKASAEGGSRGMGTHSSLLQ

[7] = system: Platelet; assay: Inhibition of arachidonic acid-stimulated thromboxane B2 formation in human platelet at 5 uM; format: functional
[8] = system: Platelet; assay: Inhibition of arachidonic acid-stimulated thromboxane B2 formation in human platelet assessed per 3*10^8 platelets at 5 uM; format: functional
[9] = target: T1, Proteinase-activated receptor 4 (Homo sapiens); assay: Inhibition of PAR4-mediated GYPGKF-induced ATP release in human platelet assessed per 3*10^8 platelets at 5 uM
[10] = target: T1, Proteinase-activated receptor 4 (Homo sapiens); assay: Inhibition of PAR4-mediated GYPGKF-induced ATP release in human platelet assessed per 3*10^8 platelets at 1 uM
[11] = target: T1, Proteinase-activated receptor 4 (Homo sapiens); assay: Inhibition of PAR4-mediated GYPGKF-induced P-selectin expression in human platelet at 1 uM
[12] = target: T1, Proteinase-activated receptor 4 (Homo sapiens); assay: Inhibition of PAR4-mediated GYPGKF-induced P-selectin expression in human platelet at 0.1 uM
[13] = target: T1, Proteinase-activated receptor 4 (Homo sapiens); assay: Inhibition of PAR4-mediated GYPGKF-induced P-selectin expression in human platelet at 0.05 uM
[14] = target: T1, Proteinase-activated receptor 4 (Homo sapiens); assay: Inhibition of PAR4-mediated GYPGKF-induced ATP release in human platelet assessed per 3*10^8 platelets at 0.2 uM
[15] = target: T1, Proteinase-activated receptor 4 (Homo sapiens); assay: Inhibition of PAR4-mediated GYPGKF-induced ATP release in human platelet assessed per 3*10^8 platelets at 0.1 uM

Compound	IC50 [1] [µM]	IC50 [2] [µM]	IC50 [3] [µM]	IC50 [4] [µM]	IC50 [5] [µM]	inhibition [6] [%]	inhibition at 5 µM [7] [%]	Activity [8] [ng]	Activity [9] [ng]	Activity [10] [ng]	inhibition [11] [%]	inhibition [12] [%]	inhibition [13] [%]	Activity [14] [ng]	Activity [15] [ng]
CCOC(=O)c1ccc(-c2nn(Cc3cccnc3)c3ccccc23)cc1	> 10	> 10	> 10	> 10	5.55										
CCOC(=O)c1ccc(-c2nn(C)c3ccccc23)cc1	> 10	> 10	> 10	> 10	0.27										
CCOC(=O)c1ccc(-c2nn(Cc3ccc(Cl)cc3)c3ccccc23)cc1	> 10	> 10	> 10	> 10	0.12										
CCOC(=O)c1ccc(-c2nn(-c3ccccc3)c3ccccc23)cc1	> 10	> 10	4.81	> 10	2.64	1.6	98.5	24.4	1.8						
CC(C)OC(=O)c1ccc(-c2nn(Cc3ccccc3)c3ccccc23)cc1	> 10	> 10	> 10	> 10	> 10										
CCOC(=O)/C=C/c1ccc(-c2nn(Cc3ccccc3)c3ccccc23)cc1	> 10	> 10	> 10	> 10	> 10										
CCCn1nc(-c2ccc(C(=O)OCC)cc2)c2ccccc21	> 10	> 10	> 10	> 10	0.49										
CCCCn1nc(-c2ccc(C(=O)OCC)cc2)c2ccccc21	> 10	> 10	> 10	> 10	0.67										
CCOC(=O)c1ccc(-c2nn(Cc3ccccn3)c3ccccc23)cc1	> 10	> 10	> 10	> 10	0.29			1013.7		3.7	1.2				
CCCNC(=O)c1ccc(-c2nn(Cc3ccccc3)c3ccccc23)cc1	> 10	> 10	9.56	> 10	> 10										
CCOC(=O)c1ccc(-c2nn(Cc3ccncc3)c3ccccc23)cc1	> 10	> 10	> 10	> 10	5.63										
CCOC(=O)c1ccc(-c2nn(Cc3ccccc3)c3ccccc23)cc1	> 10	> 10	> 10	> 10	0.13			1408.3				7.7	67.2	12.7	74.4
CCOC(=O)c1ccc(-c2nn(Cc3ccoc3)c3ccccc23)cc1	> 10	> 10	> 10	> 10	0.58										
CCNC(=O)c1ccc(-c2nn(Cc3ccccc3)c3ccccc23)cc1	> 10	> 10	> 10	> 10	5.64										
CCOC(=O)c1ccc(-c2c3ccccc3nn2Cc2ccccc2)cc1	> 10	> 10	> 10	> 10	> 10										
CCOC(=O)c1ccc(-c2nn(Cc3cccc(OC)c3)c3ccccc23)cc1	> 10	> 10	> 10	> 10	0.26										
CCOC(=O)c1ccc(-c2nn(Cc3cccc(F)c3)c3ccccc23)cc1	> 10	> 10	> 10	> 10	0.27										
NC(=O)c1ccc(-c2nn(Cc3ccccc3)c3ccccc23)cc1	> 10	> 10	> 10	> 10	> 10										

Compound	IC50 [1] [µM]	IC50 [2] [µM]	IC50 [3] [µM]	IC50 [4] [µM]	IC50 [5] [µM]	inhibition [6] [%]	inhibition at 5 µM [7] [%]	Activity [8] [ng]	Activity [9] [ng]	Activity [10] [ng]	inhibition [11] [%]	inhibition [12] [%]	inhibition [13] [%]	Activity [14] [ng]	Activity [15] [ng]
CCOC(=O)c1ccc(-c2nn(Cc3ccco3)c3ccccc23)cc1	> 10	> 10	> 10	> 10	0.34										
CCOC(=O)c1cccc(-c2nn(Cc3ccccc3)c3ccccc23)c1	> 10	> 10	> 10	> 10	> 10										
CO/N=C\c1ccc(-c2nn(Cc3ccccc3)c3ccccc23)cc1	> 10	> 10	> 10	> 10	> 10										
CCCOC(=O)c1ccc(-c2nn(Cc3ccccc3)c3ccccc23)cc1	> 10	> 10	> 10	> 10	> 10										
OCc1ccc(-c2nn(Cc3ccccc3)c3ccccc23)cc1	> 10	> 10	> 10	> 10	> 10										
O=C(O)c1ccc(-c2nn(Cc3ccccc3)c3ccccc23)cc1	> 10	> 10	> 10	> 10	> 10										
CNC(=O)c1ccc(-c2nn(Cc3ccccc3)c3ccccc23)cc1	> 10	> 10	> 10	> 10	> 10										
CCOC(=O)c1ccc(-c2nn(Cc3cccc(Cl)c3)c3ccccc23)cc1	> 10	> 10	> 10	> 10	0.08			1368.4				5.2	39.3	8.9	58.9
CCOC(=O)c1ccc(-c2nn(Cc3ccccc3F)c3ccccc23)cc1	> 10	> 10	> 10	> 10	0.11										
CCOC(=O)c1ccc(-c2nn(CC)c3ccccc23)cc1	> 10	> 10	> 10	> 10	0.36										
CC(C)NC(=O)c1ccc(-c2nn(Cc3ccccc3)c3ccccc23)cc1	> 10	> 10	> 10	> 10	> 10										
CCOC(=O)c1ccc(-c2nn(C(C)C)c3ccccc23)cc1	> 10	> 10	> 10	> 10	0.65										
CCOC(=O)c1ccc(-c2nn(Cc3ccc(F)cc3)c3ccccc23)cc1	> 10	> 10	> 10	> 10	0.19										
CCOC(=O)c1ccc(-c2nn(Cc3ccccc3Cl)c3ccccc23)cc1	> 10	> 10	> 10	> 10	0.23										
CCOC(=O)c1ccc(-c2nn(Cc3ccc(OC)cc3)c3ccccc23)cc1	> 10	> 10	> 10	> 10	0.62										
CCOC(=O)c1ccc(-c2nn(Cc3ccccc3OC)c3ccccc23)cc1	> 10	> 10	> 10	> 10	0.47										
COC(=O)c1ccc(-c2nn(Cc3ccccc3)c3ccccc23)cc1	> 10	> 10	> 10	> 10	0.56										
